Assay results taken from patent US9687550B2, “Compositions for nucleic acid delivery” (Arbutus Biopharma Corporation, priority 2009, dated 2017).

Test: pKa of lipid
Type: physicochemical

## CCCCCCCCCCCCCCCCCCC(CCCCCCCCCCCCCCCCCC)OC(=O)CCCN(C)C [compound 111]
  pKa: > 7.4
